Assay [1] deals with ALL-SIL cells. The assay is described as follows: CellTiterGlo (CTG) cell viability, 72 h, ALL-SIL (Example 8). It is filed as cell-based. As to the method: ALL-SIL cells were cultivated in RPMI supplemented with 20% heat inactivated fetal bovine serum, penicillin (100 IU/ml), streptomycin (100 μg/ml) and L-glutamine (2 mM). Cell lines were cultured at 37° C. in a humidified atmosphere containing 5% CO2. Cells were seeded in 96 well clear bottom plates (96 well clear-bottom, white, Corning reference 3903) and exposed to the payloads or ADCs for 72 h (serially diluted; 9 concentrations each, triplicates). Effects of payloads or ADCs on cell viability were assessed after 3 days of incubation at 37° C./5% CO2 by quantification of cellular ATP levels using CellTiterGlo at 75 μL reagent/well. All the conditions were tested in triplicates. Luminescence was quantified on a multipurpose plate reader. IC50s were calculated using standard four-parametric curve fitting. […] Each experiment was performed at least twice, with results being reproducible.
A general note: Cellular ATP, detected with luciferase, serves as a proxy for viable cell number.

Assay [2] relates to DND-41 cells. The assay is described as follows: CellTiterGlo (CTG) cell viability, 72 h, DND-41 (Example 8). It is filed as cell-based. As to the method: DND-41 cells were cultivated in RPMI supplemented with 10% heat inactivated fetal bovine serum, penicillin (100 IU/ml), streptomycin (100 μg/ml) and L-glutamine (2 mM). Cell lines were cultured at 37° C. in a humidified atmosphere containing 5% CO2. […] Effects of payloads or ADCs on cell viability were assessed after 3 days of incubation at 37° C./5% CO2 by quantification of cellular ATP levels using CellTiterGlo at 75 μL reagent/well. All the conditions were tested in triplicates. Luminescence was quantified on a multipurpose plate reader. IC50s were calculated using standard four-parametric curve fitting.

Assay [3] deals with H1650 cells. The assay is described as follows: CellTiterGlo (CTG) cell viability, 3D, 120 h, H1650 (Example 8). Format: cell-based, human. To be noted: Homo sapiens, NCI-H1650, H1650 3D.
[4] abbreviates: experiment n1, read-out: H1650 3D CTG IC50 n1.
[5] abbreviates: experiment n2, read-out: H1650 3D CTG IC50 n2.
Setting [6] is: mean of n1 and n2, read-out: H1650 3D CTG IC50 Mean of n1 and n2.

SMILES strings stand for the structures. Where two headings read alike, the source gives them in different places.

One may read the IC50 as the concentration that inhibits the measured activity by half. As for `CNCC#Cc1ccc(OCCCc2sc(N(CCC(O)CO)c3cc(C)c(Nc4nc5ccccc5s4)nn3)nc2C(=O)O)c(F)c1` (stereo not drawn) [P44, 2-[[6-(1,3-Benzothiazol-2-ylamino)-5-methyl-pyridazin-3-yl]-(3,4-dihydroxybutyl)amino]-5-[3-[2-fluoro-4-[3-(methylamino)prop-1-ynyl]phenoxy]propyl]thiazole-4-carboxylic acid], the IC50 came out at 4.64 nM in assay [1] (experiment n1, read-out: ALLSIL CTG 72 h IC50 nM n1); 3.14 nM in assay [1] (experiment n2, read-out: ALLSIL CTG 72 h IC50 nM n2); 3.89 nM in assay [1] (mean of n1 and n2, read-out: ALLSIL CTG 72 h IC50 nM Mean of n1 and n2); 36 nM in assay [2] (DND41, experiment n1, read-out: DND41 CTG 72 h IC50 nM n1); 33.6 nM in assay [2] (DND41, experiment n2, read-out: DND41 CTG 72 h IC50 nM n2); 34.8 nM in assay [2] (DND41, mean of n1 and n2, read-out: DND41 CTG 72 h IC50 nM Mean of n1 and n2).

Regarding `Cc1c(Nc2nc3cc(F)ccc3s2)nnc2c1CCCN2c1ccc(-c2cnn(CC34CC5(C)CC(C)(C3)CC(OCCN3CCCC3)(C5)C4)c2C)c(C(=O)O)n1` [P63, 3-[1-[[3,5-dimethyl-7-(2-pyrrolidin-1-ylethoxy)-1-adamantyl]methyl]-5-methyl-pyrazol-4-yl]-6-[3-[(5-fluoro-1,3-benzothiazol-2-yl)amino]-4-methyl-6,7-dihydro-5H-pyrido[2,3-c]pyridazin-8-yl]pyridine-2-carboxylic acid], the IC50 came to 3.73 nM in assay [3] (setting [4]), 2.03 nM in assay [3] (setting [5]) and 2.88 nM in assay [3] (setting [6]).

With `Cc1ccc2nc(Nc3nnc4c(c3C)CCCN4c3ccc(-c4cnn(CC56CC7(C)CC(C)(C5)CC(OCCN5CCCC5)(C7)C6)c4C)c(C(=O)O)n3)sc2c1` [P64, 3-[1-[[3,5-dimethyl-7-(2-pyrrolidin-1-ylethoxy)-1-adamantyl]methyl]-5-methyl-pyrazol-4-yl]-6-[4-methyl-3-[(6-methyl-1,3-benzothiazol-2-yl)amino]-6,7-dihydro-5H-pyrido[2,3-c]pyridazin-8-yl]pyridine-2-carboxylic acid], the IC50 came out at 1.6 nM in assay [3] (setting [4]), 2.9 nM in assay [3] (setting [5]) and 2.25 nM in assay [3] (setting [6]).

For the compound `Cc1c(Nc2nc3ccc(F)cc3s2)nnc2c1CCCN2c1ccc(-c2cnn(CC34CC5(C)CC(C)(C3)CC(OCCN3CCCC3)(C5)C4)c2C)c(C(=O)O)n1` [P65, 3-[1-[[3,5-dimethyl-7-(2-pyrrolidin-1-ylethoxy)-1-adamantyl]methyl]-5-methyl-pyrazol-4-yl]-6-[3-[(6-fluoro-1,3-benzothiazol-2-yl)amino]-4-methyl-6,7-dihydro-5H-pyrido[2,3-c]pyridazin-8-yl]pyridine-2-carboxylic acid], the IC50 is 1 nM in assay [3] (setting [4]), 1.2 nM in assay [3] (setting [5]) and 1.1 nM in assay [3] (setting [6]).

On to `Cc1c(Nc2nc3ccccc3s2)nnc2c1CCCN2c1ccc(-c2cnn(CC34CC5(C)CC(C)(CC(CCCN(C)C)(C5)C3)C4)c2C)c(C(=O)O)n1` [P66, 6-[3-(1,3-benzothiazol-2-ylamino)-4-methyl-6,7-dihydro-5H-pyrido[2,3-c]pyridazin-8-yl]-3-[1-[[3-[3-(dimethylamino)propyl]-5,7-dimethyl-1-adamantyl]methyl]-5-methyl-pyrazol-4-yl]pyridine-2-carboxylic acid], for which the IC50 in assay [3] (setting [4]) came out at 0.49 nM; in assay [3] (setting [5]) it was 0.22 nM; in assay [3] (setting [6]), 0.355 nM.

Consider `Cc1c(Nc2nc3ccccc3s2)nnc2c1CCCN2c1ccc(-c2cnn(CC34CC5(C)CC(C)(CC(CCCN(C)CCCO)(C5)C3)C4)c2C)c(C(=O)O)n1` [P68, 6-[3-(1,3-benzothiazol-2-ylamino)-4-methyl-6,7-dihydro-5H-pyrido[2,3-c]pyridazin-8-yl]-3-[1-[[3-[3-[3-hydroxypropyl(methyl)amino]propyl]-5,7-dimethyl-1-adamantyl]methyl]-5-methyl-pyrazol-4-yl]pyridine-2-carboxylic acid], for which the IC50 in assay [3] (setting [4]) came to 0.84 nM; in assay [3] (setting [5]), 0.68 nM; in assay [3] (setting [6]), 0.76 nM.

Consider `Cc1c(Nc2nc3ccccc3s2)nnc2c1CCCN2c1ccc(-c2cnn(CC34CC5(C)CC(C)(CC(CCCNCC[C@H](O)CO)(C5)C3)C4)c2C)c(C(=O)O)n1` [P69, 6-[3-(1,3-benzothiazol-2-ylamino)-4-methyl-6,7-dihydro-5H-pyrido[2,3-c]pyridazin-8-yl]-3-[1-[[3-[3-[[(3S)-3,4-dihydroxybutyl]amino]propyl]-5,7-dimethyl-1-adamantyl]methyl]-5-methyl-pyrazol-4-yl]pyridine-2-carboxylic acid], for which the results for the IC50 in assay [3] (setting [4]), in assay [3] (setting [5]) and in assay [3] (setting [6]) were 3.78 nM, 5.56 nM and 4.67 nM, respectively.

As for `Cc1c(Nc2nc3ccccc3s2)nnc2c1CCCN2c1ccc(-c2cnn(CC34CC5(C)CC(C)(C3)CC(OCCN(C)CCC(=O)O)(C5)C4)c2C)c(C(=O)O)n1` [P70, 6-[3-(1,3-benzothiazol-2-ylamino)-4-methyl-6,7-dihydro-5H-pyrido[2,3-c]pyridazin-8-yl]-3-[1-[[3-[2-[2-carboxyethyl(methyl)amino]ethoxy]-5,7-dimethyl-1-adamantyl]methyl]-5-methyl-pyrazol-4-yl]pyridine-2-carboxylic acid], the IC50 in assay [3] (setting [4]) was 9.65 nM; in assay [3] (setting [5]), 9.49 nM; in assay [3] (setting [6]) it was 9.57 nM.

For `Cc1c(Nc2nc3ccccc3s2)nnc2c1CCCN2c1ccc(-c2cnn(CC34CC5(C)CC(C)(C3)CC(OCCNCCC(=O)O)(C5)C4)c2C)c(C(=O)O)n1` [P71, 6-[3-(1,3-benzothiazol-2-ylamino)-4-methyl-6,7-dihydro-5H-pyrido[2,3-c]pyridazin-8-yl]-3-[1-[[3-[2-(2-carboxyethylamino)ethoxy]-5,7-dimethyl-1-adamantyl]methyl]-5-methyl-pyrazol-4-yl]pyridine-2-carboxylic acid], the concentration for half-maximal inhibition (IC50) in assay [3] (setting [4]) came out at 16.3 nM; in assay [3] (setting [5]), 13.4 nM; in assay [3] (setting [6]), 14.8 nM.

`Cc1c(Nc2nc3ccccc3s2)nnc2c1CCCN2c1ccc(-c2cnn(CC34CC5(C)CC(C)(CC(CCCNCCCCO)(C5)C3)C4)c2C)c(C(=O)O)n1` [P72, 6-[3-(1,3-benzothiazol-2-ylamino)-4-methyl-6,7-dihydro-5H-pyrido[2,3-c]pyridazin-8-yl]-3-[1-[[3-[3-(4-hydroxybutylamino)propyl]-5,7-dimethyl-1-adamantyl]methyl]-5-methyl-pyrazol-4-yl]pyridine-2-carboxylic acid]: the IC50 amounted to 5.07 nM in assay [3] (setting [4]), 5.57 nM in assay [3] (setting [5]) and 5.32 nM in assay [3] (setting [6]).

In the case of `Cc1c(Nc2nc3ccccc3s2)nnc2c1CCCN2c1ccc(-c2cnn(CC34CC5(C)CC(C)(C3)CC(OCCN3CCCC3)(C5)C4)c2C)c(CO)n1` [P73, [6-[3-(1,3-benzothiazol-2-ylamino)-4-methyl-6,7-dihydro-5H-pyrido[2,3-c]pyridazin-8-yl]-3-[1-[[3,5-dimethyl-7-(2-pyrrolidin-1-ylethoxy)-1-adamantyl]methyl]-5-methyl-pyrazol-4-yl]-2-pyridyl]methanol], the figures for the IC50 in assay [3] (setting [4]), in assay [3] (setting [5]) and in assay [3] (setting [6]) were 8.6 nM, 9.41 nM and 9.01 nM, respectively.

With `Cc1c(Nc2nc3ccccc3s2)nnc2c1CCCN2c1ccc(-c2cnn(CC34CC5(C)CC(C)(C3)CC(OCCN3CCCC3)(C5)C4)c2C)c(C(=O)N2CCCC2)n1` [P74, [6-[3-(1,3-benzothiazol-2-ylamino)-4-methyl-6,7-dihydro-5H-pyrido[2,3-c]pyridazin-8-yl]-3-[1-[[3,5-dimethyl-7-(2-pyrrolidin-1-ylethoxy)-1-adamantyl]methyl]-5-methyl-pyrazol-4-yl]-2-pyridyl]-pyrrolidin-1-yl-methanone], the IC50 in assay [3] (setting [4]) was determined as 2 nM; in assay [3] (setting [5]), 1.86 nM; in assay [3] (setting [6]), 1.93 nM.

`Cc1c(Nc2nc3ccccc3s2)nnc2c1CCCN2c1ccc(-c2cnn(CC34CC5(C)CC(C)(C3)CC(OCCN3CCCC3)(C5)C4)c2C)c(C(=O)NC(C)C)n1` [P75, 6-[3-(1,3-benzothiazol-2-ylamino)-4-methyl-6,7-dihydro-5H-pyrido[2,3-c]pyridazin-8-yl]-3-[1-[[3,5-dimethyl-7-(2-pyrrolidin-1-ylethoxy)-1-adamantyl]methyl]-5-methyl-pyrazol-4-yl]-N-isopropyl-pyridine-2-carboxamide]: the values for the half-inhibitory concentration (IC50) in assay [3] (setting [4]), in assay [3] (setting [5]) and in assay [3] (setting [6]) were 2.3 nM, 3.03 nM and 2.67 nM, respectively.

In the case of `Cc1c(Nc2nc3ccccc3s2)nnc2c1CCCN2c1ccc(-c2cnn(CC34CC5(C)CC(C)(C3)CC(OCCN3CCCC3)(C5)C4)c2C)c(C(N)=O)n1` [P76, 6-[3-(1,3-benzothiazol-2-ylamino)-4-methyl-6,7-dihydro-5H-pyrido[2,3-c]pyridazin-8-yl]-3-[1-[[3,5-dimethyl-7-(2-pyrrolidin-1-ylethoxy)-1-adamantyl]methyl]-5-methyl-pyrazol-4-yl]pyridine-2-carboxamide], the IC50 in assay [3] (setting [4]) is 2 nM; in assay [3] (setting [5]) it was 3.87 nM; in assay [3] (setting [6]) it was 2.94 nM.
